Source: publication PMC12589438 (Communications Chemistry, 2025)
Positions of bridges follow the written chain, without caps; N, C: chain ends. Non-standard residues stand in square brackets, D forms with d. Residues, ends and D or L forms follow the SMILES beside them. *: point of attachment. Benzoyl(4-F) = O=C(c1ccc(F)cc1)*; Mpa = O=C(O)CCS

Assays:
human OTR = biological target: T1, human OTR (Homo sapiens, UniProt P30559); assay: FLIPR calcium mobilisation assay, hOTR; type: cell-based; settings: for EC50: COS-1 cells transfected with hOTR, n = 3, mean ± SEM
T1 construct: expressed in transfected cells; host or cells: COS-1
T1 sequence (P30559 1-389): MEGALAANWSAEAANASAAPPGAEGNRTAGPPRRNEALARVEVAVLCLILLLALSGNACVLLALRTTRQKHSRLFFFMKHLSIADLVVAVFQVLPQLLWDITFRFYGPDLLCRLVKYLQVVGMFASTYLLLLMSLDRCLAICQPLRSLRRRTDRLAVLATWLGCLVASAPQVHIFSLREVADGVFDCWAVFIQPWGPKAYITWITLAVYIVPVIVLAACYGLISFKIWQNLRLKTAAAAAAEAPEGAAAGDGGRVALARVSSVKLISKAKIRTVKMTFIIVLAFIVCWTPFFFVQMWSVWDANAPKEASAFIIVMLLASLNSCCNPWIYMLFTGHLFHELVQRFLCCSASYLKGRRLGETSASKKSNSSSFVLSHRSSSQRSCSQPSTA
Method: (§1) OTR belongs to the rhodopsin-type (class I) G protein-coupled receptor (GPCR) family and is closely related to the vasopressin (VP) receptor (VPR) family (V1aR, V1bR, V2R). […] OTR, V1aR, and V1bR are expressed in the periphery and in CNS, while V2R is primarily expressed in the kidneys and was deemed not in scope for our exploration. The EC50 of our ligands was measured using a Fluorescent Imaging Plate Reader (FLIPR) calcium mobilisation assay (Fig. 2C)[34].
(§2) COS-1 cells were cultured in Dulbecco’s modified Eagle’s medium (DMEM) and 5% foetal bovine serum (FBS). […] Fluo-4-AM [4-(6-acetoxymethoxy-2,7-difluoro-3-oxo-9-xanthenyl)-4′-methyl-2,2′-(ethylenedioxy)dianilineN,N,N′,N′-tetraacetic acid tetrakis(acetoxymethyl) ester] ([…]) in PSS containing 0.3% fatty acid-free BSA was then added, and the cells incubated for 30 min at 37 °C. […] The baseline fluorescence was set to a minimum of 1000 arbitrary fluorescence units. The baseline fluorescence was read 10 times, followed by the addition of test compounds and fluorescence measurement every second for 180 s. The test compounds were added as an 8-point gradient in triplicate, with the highest concentration of 10 μM in PSS. To convert the raw fluorescence data to DF/F, the baseline fluorescence readings were subtracted from subsequent time points, and the resulting value was divided by the baseline fluorescence values.

human V1aR = biological target: T2, human V1aR (Homo sapiens, UniProt P37288); assay: FLIPR calcium mobilisation assay, hV1aR; type: cell-based; settings: COS-1 cells transfected with hV1aR; n = 3, mean ± SEM
T2 construct: expressed in transfected cells; host or cells: COS-1
Method: as §1
as §2, with “°C. The cells were then transferred to a” for “°C.”

human V1bR = biological target: T3, human V1bR (Homo sapiens, UniProt P47901); assay: FLIPR calcium mobilisation assay, hV1bR; type: cell-based; settings: COS-1 cells transfected with hV1bR; n = 3, mean ± SEM
T3 construct: expressed in transfected cells; host or cells: COS-1
T3 sequence (P47901 1-424): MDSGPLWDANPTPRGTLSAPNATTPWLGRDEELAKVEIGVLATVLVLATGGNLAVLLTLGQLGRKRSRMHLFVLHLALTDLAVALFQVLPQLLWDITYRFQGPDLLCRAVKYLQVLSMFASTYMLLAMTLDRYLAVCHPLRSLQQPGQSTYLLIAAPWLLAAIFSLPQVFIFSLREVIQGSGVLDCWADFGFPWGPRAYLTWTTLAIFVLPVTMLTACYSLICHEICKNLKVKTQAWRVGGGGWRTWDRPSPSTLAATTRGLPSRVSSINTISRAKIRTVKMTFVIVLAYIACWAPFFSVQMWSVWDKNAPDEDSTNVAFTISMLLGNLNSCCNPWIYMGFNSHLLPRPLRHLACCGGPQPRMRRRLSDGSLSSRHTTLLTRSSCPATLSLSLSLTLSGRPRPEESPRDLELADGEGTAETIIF
Method: as §1, §2

[1] = pH 7
Method: (§3) Tested peptides were dissolved (1 mM) in 100 mM sodium citrate buffer (pH 3), 100 mM potassium phosphate buffer (pH 7), or 100 mM sodium carbonate buffer (pH 9).

in vitro = settings: rat, serum
Method: One hundred and fifty microliters of rat or human serum (Sigma Aldrich) was preheated at 37 °C for 30 min. 25 μL of the tested peptide sample (0.3 M in 0.1 M potassium phosphate buffer at pH 7.2) or 0.1 M potassium phosphate buffer pH 7.2 (for blank sample) were added to the serum and incubated at 37 °C. […] Sampled were centrifugated at 20,000 × g for 10 min, and the supernatant analysed via LC-MS (column: Agilent Technology, Zorbex C18, 2.1 × 100 mm, 5 μm, 300 Å. Elution method: 0–50% B in 50 min, 0.25 mL/min. Solvent A: 0.1% TFA in H2O. Solvent B: 0.1% TFA in ACN). Each peptide sample was analysed in three independent experiments, and data analysis was performed using Prism Version 7, a nonlinear fit one-phase decay model.

physchem = settings: buffer
Method: as §3

[2] = Hydrophobicity assessment by analytical C18-RP-HPLC; type: physicochemical; settings: 0–40% B
Method: To identify the most OT-like radiotracer, we first assessed the hydrophobicity of all compounds by comparing their retention times with OT on an analytical C18-RP-HPLC column (Fig. 2A).
Fig. 2 Pharmacological characterisation of OT analogues. […] B Metabolic stability of OT analogues in rat and human serum. Each time point was analysed in three independent experiments (n = 3 technical triplicates, mean ± SEM). C Potencies (EC50) values for OT and analogues at the human OTR, V1aR, and V1bR, determined by a FLIPR calcium mobilisation assay (n = 3 technical triplicates, mean ± SEM). […]; similar hydrophobicity with HPLC Rt ± 20% from OT; buffer t1/2 > 30 min at pH 7; […]; EC50 at OTR < 50 nM; EC50 at V1aR and V1bR < 5×EC50(OTR) (n.a.: not assessed).

[3] = Stability test at different pH (buffered solutions); settings: buffer
Method: as §3

[4] = pH 3, t1/2 pH 3.0, 100 mM sodium citrate buffer pH 3, 10 h
[5] = pH 7, t1/2 pH 7.0, 100 mM potassium phosphate buffer pH 7, 10 h
[6] = pH 9, t1/2 pH 9.0, 100 mM sodium carbonate buffer pH 9, 10 h

T2 sequence (P37288 whole entry): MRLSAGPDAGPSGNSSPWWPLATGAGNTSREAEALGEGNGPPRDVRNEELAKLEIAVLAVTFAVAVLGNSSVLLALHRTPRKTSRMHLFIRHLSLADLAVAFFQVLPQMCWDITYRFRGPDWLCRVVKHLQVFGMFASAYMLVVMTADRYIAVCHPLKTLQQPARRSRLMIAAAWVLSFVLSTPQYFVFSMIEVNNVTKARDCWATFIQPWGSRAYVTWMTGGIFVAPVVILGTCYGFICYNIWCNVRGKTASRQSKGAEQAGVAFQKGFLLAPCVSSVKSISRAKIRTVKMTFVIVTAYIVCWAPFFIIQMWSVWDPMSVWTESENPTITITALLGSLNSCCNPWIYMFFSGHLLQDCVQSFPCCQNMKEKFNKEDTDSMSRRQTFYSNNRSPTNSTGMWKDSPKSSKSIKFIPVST

Row | EC50 (human OTR) | fold more potent than OT at OTR (human OTR; EC50 compared with OT) | EC50 (human V1aR) | EC50 (human V1bR) | degradation within 10 h [1] | half-life at 0.043 M (in vitro) | half-life at 1 mM (physchem; pH 3) | half-life at 1 mM (physchem; pH 7) | half-life at 1 mM (physchem; pH 9) | fold less potent than OT at OTR (human OTR; EC50 compared with OT) | SMILES | hydrophobicity compared with OT (retention on C18-RP-HPLC) [2] | half-life at 1 mM [3, 4] | half-life at 1 mM ([3]; pH 7, t1/2 at pH 7, pH 7, as stated in main text) | half-life at 1 mM [3, 5] | half-life at 1 mM ([3]; pH 9, t1/2 at pH 9, pH 9, as stated in main text) | half-life at 1 mM [3, 6]
1 | 46.8 ± 1.5 nM | – | 334.3 ± 0.6 nM | 46 ± 3.6 nM | 25% | > 48 h | > 10 h | > 10 h | > 10 h | ~ 4 fold | CC[C@H](C)[C@@H]1NC(=O)[C@H](Cc2ccc(O)cc2)NC(=O)CCSSC[C@@H](C(=O)N2CCC[C@H]2C(=O)N[C@@H](CCCCNC(=O)c2ccc(F)cc2)C(=O)NCC(N)=O)NC(=O)[C@H](CC(N)=O)NC(=O)[C@H](CCC(N)=O)NC1=O [dOTK^8[SFB]] ([Mpa]YIQNCPK(Benzoyl(4-F))G-NH2; disulfide 1-6) | – | – | – | – | – | –
2 | 42.1 ± 1.4 nM | – | 331.6 ± 0.4 nM | 354 ± 5.7 nM | – | 18 ± 0.04 h | > 10 h | > 10 h | > 10 h | ~ 4 fold | CC[C@H](C)[C@@H]1NC(=O)[C@H](Cc2ccc(O)cc2)NC(=O)[C@@H](N)CSSC[C@@H](C(=O)N2CCC[C@H]2C(=O)N[C@@H](CCCCNC(=O)CON=Cc2ccc(F)cc2)C(=O)NCC(N)=O)NC(=O)[C@H](CC(N)=O)NC(=O)[C@H](CCC(N)=O)NC1=O [OTK^8[Aoa-FBA]] | significantly more hydrophobic | – | – | – | – | –

Second part, the compound before the results:

Row | SMILES | EC50 (human OTR) | fold more potent than OT at OTR (human OTR; EC50 compared with OT) | EC50 (human V1aR) | EC50 (human V1bR) | degradation within 10 h [1] | half-life at 0.043 M (in vitro) | half-life at 1 mM (physchem; pH 3) | half-life at 1 mM (physchem; pH 7) | half-life at 1 mM (physchem; pH 9) | fold less potent than OT at OTR (human OTR; EC50 compared with OT) | hydrophobicity compared with OT (retention on C18-RP-HPLC) [2] | half-life at 1 mM [3, 4] | half-life at 1 mM ([3]; pH 7, t1/2 at pH 7, pH 7, as stated in main text) | half-life at 1 mM [3, 5] | half-life at 1 mM ([3]; pH 9, t1/2 at pH 9, pH 9, as stated in main text) | half-life at 1 mM [3, 6]
3 | CC[C@H](C)[C@@H]1NC(=O)[C@H](Cc2ccc(O)cc2)NC(=O)[C@@H](N)CSSC[C@@H](C(=O)N2CCC[C@H]2C(=O)N[C@@H](CCCCNC(=O)CON=C[C@H](F)[C@@H](O)[C@H](O)[C@H](O)CO)C(=O)NCC(N)=O)NC(=O)[C@H](CC(N)=O)NC(=O)[C@H](CCC(N)=O)NC1=O [OTK^8[Aoa-FDG]] | 5.25 ± 5.1 nM | ~ 2 fold | 115 ± 81 nM | 54 ± 31 nM | 25% | 13 ± 0.11 h | > 10 h | > 10 h | > 10 h | – | – | – | – | – | – | –
4 | CC[C@H](C)[C@@H]1NC(=O)[C@H](Cc2ccc(O)cc2)NC(=O)[C@@H](N)CSSC[C@@H](C(=O)N2CCC[C@H]2C(=O)N[C@@H](CC(C)C)C(=O)NCC(N)=O)NC(=O)[C@H](CC(N)=O)NC(=O)[C@H](CCC(N)=O)NC1=O [OT, oxytocin, reference compound] | – | – | – | – | – | 47 ± 0.05 h | > 10 h | > 10 h | > 10 h | – | – | – | – | – | – | –
5 | CC[C@H](C)[C@@H]1NC(=O)[C@H](Cc2ccc(O)cc2)NC(=O)CCSSC[C@@H](C(=O)N2CCC[C@H]2C(=O)N[C@@H](CCCCN(CCS(=O)(=O)F)CCS(=O)(=O)F)C(=O)NCC(N)=O)NC(=O)[C@H](CC(N)=O)NC(=O)[C@H](CCC(N)=O)NC1=O [dOTK^8[ESF2]] | – | – | – | – | – | – | – | – | – | – | significantly more hydrophobic | 3.6 h | < 0.5 h | < 1 h | < 0.5 h | < 1 h
6 | CC[C@H](C)[C@@H]1NC(=O)[C@H](Cc2ccc(O)cc2)NC(=O)CCSSC[C@@H](C(=O)N2CCC[C@H]2C(=O)N[C@@H](CCCCNCCS(=O)(=O)F)C(=O)NCC(N)=O)NC(=O)[C@H](CC(N)=O)NC(=O)[C@H](CCC(N)=O)NC1=O [dOTK^8[ESF]] | – | – | – | – | – | – | – | – | – | – | – | > 10 h | – | > 10 h | – | > 10 h
